Test results published in ChEMBL document CHEMBL1152878, “N-Hydroxy-1,2-disubstituted-1H-benzimidazol-5-yl acrylamides as novel histone deacetylase inhibitors: design, synthesis, SAR studies, and in vivo antitumor activity” (Bioorg Med Chem Lett, 2009).
The source made the active and inactive calls. No cut-off for these calls is given here.

How the values were obtained:
COLO 205 = experiment: Antiproliferative activity against human COLO205 cells after 96 hrs by celltiter assay; type: functional, cell-based; details: COLO 205, 96 h
HCT-116 [1] = experiment: Antitumor activity against human HCT116 cells xenografted in athymic mouse assessed as tumor growth inhibition at 60 mg/kg, ip qd for 21 days measured on day 22; type: functional; details: HCT-116, ip, route intraperitoneal, read-out: TGI
[2] = Toxicity in ip dosed athymic mouse assessed as maximum tolerated dose; type: organism-based; details: in vivo
Histone deacetylase 1 = Histone deacetylase 1 (Homo sapiens, UniProt Q13547)
Description: Inhibition of recombinant HDAC1 by fluorimetric assay

HCT-116 [3] = experiment: Induction of histone H3 hyperacetylation in human HCT116 cells; type: functional, cell-based
Mus musculus [4] = experiment: Induction of histone H3 hyperacetylation in human HCT116 cells xenografted athymic mouse; type: functional, organism-based; details: HCT-116
HCT-116 [5] = experiment: Antiproliferative activity against human HCT116 cells after 96 hrs by celltiter assay; type: functional, cell-based; details: HCT-116, 96 h
A2780 = experiment: Antiproliferative activity against human A2780 cells after 96 hrs by celltiter assay; type: functional, cell-based; details: A2780, 96 h
PC-3 = experiment: Antiproliferative activity against human PC3 cells after 96 hrs by celltiter assay; type: functional, cell-based; details: PC-3, 96 h
in vitro [6] = details: human, liver microsomes
in vitro [7] = details: mouse, liver microsomes
Description: (§1) Metabolic stability in mouse liver microsomes assessed as half life

[8] = mouse, microsomes
Description: as §1

HCT-116 [9] = experiment: Antitumor activity against human HCT116 cells xenografted in athymic mouse assessed as tumor growth inhibition at 100 mg/kg, ip qd for 21 days measured on day 11; type: functional; details: HCT-116, ip, route intraperitoneal, read-out: TGI
Mus musculus [10] = experiment: Toxicity in athymic mouse xenografted with human HCT116 cells at 100 mg/kg, ip qd for 21 days measured on day 12; type: organism-based, HCT-116; design: dose 100 mg/kg, route intraperitoneal; details: in vivo, 504 h
HCT-116 [11] = experiment: Antitumor activity against human HCT116 cells xenografted in athymic mouse assessed as tumor growth inhibition at 75 mg/kg, ip qd for 21 days measured on day 21; type: functional; details: HCT-116, ip, 504 h, route intraperitoneal, read-out: TGI
HCT-116 [12] = experiment: Antitumor activity against human HCT116 cells xenografted in athymic mouse assessed as tumor growth inhibition at 50 mg/kg, ip qd for 21 days measured on day 21; type: functional; details: HCT-116, ip, 504 h, route intraperitoneal, read-out: TGI

Sequence of Histone deacetylase 1 (Q13547 whole entry): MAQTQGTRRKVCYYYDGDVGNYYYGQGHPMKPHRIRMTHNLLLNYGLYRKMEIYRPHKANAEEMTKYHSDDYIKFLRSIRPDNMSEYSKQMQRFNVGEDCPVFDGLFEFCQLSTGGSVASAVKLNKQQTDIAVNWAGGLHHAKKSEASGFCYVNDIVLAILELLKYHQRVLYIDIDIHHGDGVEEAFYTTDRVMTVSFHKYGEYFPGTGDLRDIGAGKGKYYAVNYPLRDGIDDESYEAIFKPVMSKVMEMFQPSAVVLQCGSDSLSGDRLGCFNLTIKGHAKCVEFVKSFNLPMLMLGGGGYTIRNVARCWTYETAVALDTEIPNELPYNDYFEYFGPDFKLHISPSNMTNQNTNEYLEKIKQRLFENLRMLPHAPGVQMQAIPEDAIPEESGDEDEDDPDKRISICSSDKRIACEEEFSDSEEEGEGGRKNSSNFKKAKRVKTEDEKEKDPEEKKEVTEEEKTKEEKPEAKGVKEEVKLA

Row | Compound | IC50 (COLO 205) [µM] | IC50 (Histone deacetylase 1) [µM] | other results
1 | CCN(CC)CCn1c(CCc2ccccc2)nc2cc(/C=C/C(=O)NO)ccc21 | 0.22 | 0.052 | inhibition in vivo at 60 mg/kg (HCT-116 [1]): 12%; MTD [2]: 60 mg/kg
2 | COc1cc(Cn2c(CCc3ccccc3)nc3cc(/C=C/C(=O)NO)ccc32)cc(OC)c1OC | 0.32 | 0.047 | –
3 | CC(Cc1nc2cc(/C=C/C(=O)NO)ccc2n1CCCO)c1ccccc1 (centres undefined) | 1.7 | 0.08 | –
4 | O=C(/C=C/c1ccc2c(c1)nc(CCc1ccccc1)n2CCN1CCCC1)NO | – | – | Activity (HCT-116 [3]): Active; Activity (Mus musculus [4]): Active
5 | Cl.Cn1c(CCc2ccccc2)nc2cc(/C=C/C(=O)NO)ccc21 | – | – | IC50 (HCT-116 [5]): 1.3 µM; IC50 (A2780): 0.73 µM; IC50 (PC-3): 0.89 µM; half-life (in vitro [6]): > 30 min; half-life (in vitro [7]): 23 min
6 | CN(C)CC(C)(C)Cn1c(CCc2ccccc2)nc2cc(/C=C/C(=O)NO)ccc21.Cl.Cl | – | – | IC50 (HCT-116 [5]): 0.16 µM; IC50 (A2780): 0.11 µM; IC50 (PC-3): 0.18 µM; t1/2 [8]: 1 min; half-life (in vitro [6]): 12 min
7 | O=C(NO)c1ccc2c(c1)nc(CCc1ccccc1)n2CCCO | 26 | – | –
8 | O=C(/C=C/c1ccc2c(c1)nc(-c1ccsc1)n2CCCO)NO | 31 | – | –
9 | CCN(CC)CCn1c(CCc2ccccc2)nc2cc(/C=C/C(=O)NO)ccc21.Cl.Cl | – | – | IC50 (HCT-116 [5]): 0.24 µM; IC50 (A2780): 0.1 µM; IC50 (PC-3): 0.2 µM; half-life (in vitro [6]): 16 min; half-life (in vitro [7]): 2.8 min
10 | O=C(/C=C/c1ccc2c(c1)nc(CCc1ccccc1)n2Cc1ccccc1)NO | 1.6 | 0.41 | –
11 | Cl.Cl.O=C(/C=C/c1ccc2c(c1)nc(CCc1ccccc1)n2CCN1CCCC1)NO | – | – | IC50 (HCT-116 [5]): 0.2 µM; IC50 (A2780): 0.19 µM; IC50 (PC-3): 0.15 µM; half-life (in vitro [6]): > 30 min; half-life (in vitro [7]): 2.7 min
12 | O=C(/C=C/c1ccc2c(c1)nc(C1CCCCC1)n2CCCO)NO | 31 | – | –
13 | O=C(/C=C/c1ccc2nc(CCc3ccccc3)[nH]c2c1)NO | 4.4 | 0.17 | –
14 | CCCCCCCCc1nc2cc(/C=C/C(=O)NO)ccc2n1CCCO | 3.7 | – | –
15 | O=C(/C=C/c1ccc2c(c1)nc(CCc1ccccc1)n2CCN1CCCCC1)NO | 0.09 | 0.026 | MTD [2]: 75 mg/kg; inhibition in vivo at 75 mg/kg (HCT-116 [11]): 32%
16 | Nc1ccccc1NC(=O)/C=C/c1ccc2c(c1)nc(CCc1ccccc1)n2Cc1ccccn1 | 5.1 | > 100 | –
17 | CC(C)Cc1nc2cc(CCC(=O)NO)ccc2n1CCCO | – | > 10 | –
18 | O=C(CCCCCCC(=O)Nc1ccccc1)NO [VORINOSTAT] | – | – | MTD [2]: 200 mg/kg
19 | Cn1c(CCc2ccccc2)nc2cc(C3CC3C(=O)NO)ccc21 (centres undefined) | – | 1.3 | –
20 | COc1cc(Cn2c(CCc3ccccc3)nc3cc(CCC(=O)NO)ccc32)cc(OC)c1OC | 2.4 | – | –
21 | CC(C)Cc1nc2cc(/C=C/C(=O)NO)ccc2n1CCCO | 26 | 0.1 | –
22 | Cl.Cl.O=C(/C=C/c1ccc2c(c1)nc(CCc1ccccc1)n2CCN1CCCCC1)NO | – | – | IC50 (HCT-116 [5]): 0.1 µM; IC50 (A2780): 0.031 µM; IC50 (PC-3): 0.12 µM; t1/2 [8]: 1.3 min; half-life (in vitro [6]): 10 min
23 | Cn1c(CCc2ccccc2)nc2cc(/C=C/C(=O)NO)ccc21 | 1.2 | – | MTD [2]: 50 mg/kg; inhibition in vivo at 50 mg/kg (HCT-116 [12]): 23%
24 | O=C(/C=C/c1ccc2nc(CCc3ccccc3)n(Cc3ccccc3)c2c1)NO | 5.4 | 1.2 | –

Second part, led by results:

Row | IC50 (COLO 205) [µM] | IC50 (Histone deacetylase 1) [µM] | Compound | other results
25 | > 100 | – | O=C(/C=C/c1ccc2c(c1)nc(CCc1ccccc1)n2CCCn1ccnc1)NO | –
26 | 11 | – | O=C(/C=C/c1ccc2c(c1)nc(CCc1ccccc1)n2CCCN1CCCC1=O)NO | –
27 | 1.1 | 0.16 | CN(C)CCCCn1c(CCc2ccccc2)nc2cc(/C=C/C(=O)NO)ccc21 | –
28 | 4.1 | – | O=C(/C=C/c1ccc2c(c1)nc(COCc1ccccc1)n2CCCO)NO | –
29 | 2.2 | – | COCCCn1c(CCc2ccccc2)nc2cc(/C=C/C(=O)NO)ccc21 | –
30 | 0.88 | 0.25 | O=C(/C=C/c1ccc2c(c1)nc(CCc1ccccc1)n2Cc1ccccn1)NO | –
31 | – | 2.3 | O=C(O)CCn1c(CCc2ccccc2)nc2cc(/C=C/C(=O)NO)ccc21 | –
32 | 0.12 | 0.041 | CN(C)CC(C)(C)Cn1c(CCc2ccccc2)nc2cc(/C=C/C(=O)NO)ccc21 | inhibition in vivo at 100 mg/kg (HCT-116 [9]): 60%; Activity (Mus musculus [10]): Toxic
33 | 1.9 | – | O=C(/C=C/c1ccc2c(c1)nc(CCc1ccccc1)n2CCCN1CCOCC1)NO | –
34 | 2.8 | – | O=C(/C=C/c1ccc2c(c1)nc(CCc1ccccc1)n2CCN1CCOCC1)NO | –
35 | 2 | 0.19 | CN(C)CCCn1c(CCc2ccccc2)nc2cc(/C=C/C(=O)NO)ccc21 | –
36 | 2.3 | 0.17 | CCCn1c(CCc2ccccc2)nc2cc(/C=C/C(=O)NO)ccc21 | –
37 | 0.61 | 0.31 | O=C(/C=C/c1ccc2c(c1)nc(CCc1ccccc1)n2CCCN1CCCC1)NO | –
38 | 1.5 | – | CCn1c(CCc2ccccc2)nc2cc(/C=C/C(=O)NO)ccc21 | –
39 | 8.8 | – | O=C(/C=C/c1ccc2c(c1)nc(CCc1ccccc1)n2CCc1ccccc1)NO | –
40 | 3.2 | – | O=C(/C=C/c1ccc2c(c1)nc(CCc1ccccc1)n2CCCO)NO | –
